Reference: patent US20250296936A1, “SARS-COV2 MAIN PROTEASE INHIBITORS” (Gilead Sciences, Inc., priority 2024, published 2025)

These molecules were tested on SARS-CoV-2-NLuc in A549-hACE2 cells (assay: microbe, parasite or virus in culture). Conditions: Severe acute respiratory syndrome coronavirus, 48 h, read-out: MPro EC50 (nM).
Type: cell-based, SARS Coronavirus 2

Compound | EC50
COc1ccc(Cl)c(-c2cc3[nH]c(=O)n(-c4cncc5ccccc45)c(=O)c3o2)c1 [Example 3] | 23.3 nM
O=c1[nH]c2cc(-c3ccccc3Cl)oc2c(=O)n1-c1cncc2c1CCCC2 [Example 5] | 212 nM
Cn1ncc2cncc(-n3c(=O)[nH]c4cc(-c5ccccc5Cl)oc4c3=O)c21 [Example 6] | 174 nM
O=c1[nH]c2cc(-c3ccccc3Cl)oc2c(=O)n1-c1cncc2ccc(F)cc12 [Example 7] | 79.6 nM
Cc1cncc(-n2c(=O)[nH]c3cc(-c4ccccc4Cl)oc3c2=O)c1 [Example 8] | 137 nM
COc1ccc2cncc(-n3c(=O)[nH]c4cc(-c5ccccc5Cl)oc4c3=O)c2c1 [Example 10] | 95.6 nM

Same assay, conditions: Severe acute respiratory syndrome coronavirus, 48 h; read-out: MPro EC50

Compound | EC50
O=c1[nH]c2cc(-c3ccccc3Cl)oc2c(=O)n1-c1cncc2ccccc12 [Example 4, 6-(2-chlorophenyl)-3-(4-isoquinolyl)-1H-furo[3,2-d]pyrimidine-2,4-dione] | 273 nM
Cn1ncc2cncc(-n3c(=O)[nH]c4cc(-c5ccc(F)cc5Cl)oc4c3=O)c21 [Example 9] | 1010 nM

Same assay, conditions: read-out: MPro EC50

Compound | EC50
COc1cc(-c2cc3c(o2)c(=O)n(-c2cncc4ccccc24)c(=O)n3CCC#N)c(Cl)cc1F (single isomer, unassigned) [Example 59, 3-[6-(2-chloro-4-fluoro-5-methoxy-phenyl)-3-(4-isoquinolyl)-2,4-dioxo-furo[3,2-d]pyrimidin-1-yl]propanenitrile] | 4.65 nM
COc1cc(-c2cc3c(o2)c(=O)n(-c2cncc4ccccc24)c(=O)n3CCC#N)c(Cl)cc1F (single isomer, unassigned) [Example 60, 3-[6-(2-chloro-4-fluoro-5-methoxy-phenyl)-3-(4-isoquinolyl)-2,4-dioxo-furo[3,2-d]pyrimidin-1-yl]propanenitrile] | 82.8 nM
Cn1ncc2cncc(-n3c(=O)c4oc(-c5ccccc5Cl)cc4n(CCC#N)c3=O)c21 (single isomer, unassigned) [Example 61, 3-[6-(2-chlorophenyl)-3-(1-methylpyrazolo[4,3-c]pyridin-7-yl)-2,4-dioxo-furo[3,2-d]pyrimidin-1-yl]propanenitrile] | 7.16 nM
Cn1ncc2cncc(-n3c(=O)c4oc(-c5ccccc5Cl)cc4n(CCC#N)c3=O)c21 (single isomer, unassigned) [Example 62, 3-[6-(2-chlorophenyl)-3-(1-methylpyrazolo[4,3-c]pyridin-7-yl)-2,4-dioxo-furo[3,2-d]pyrimidin-1-yl]propanenitrile] | 233 nM
COc1cc(-c2cc3c(o2)c(=O)n(-c2cncc4cnn(C)c24)c(=O)n3CCC#N)c(Cl)cc1F (single isomer, unassigned) [Example 63, 3-[6-(2-chloro-4-fluoro-5-methoxy-phenyl)-3-(1-methylpyrazolo[4,3-c]pyridin-7-yl)-2,4-dioxo-furo[3,2-d]pyrimidin-1-yl]propanenitrile] | 6.24 nM
COc1cc(-c2cc3c(o2)c(=O)n(-c2cncc4cnn(C)c24)c(=O)n3CCC#N)c(Cl)cc1F (single isomer, unassigned) [Example 64, 3-[6-(2-chloro-4-fluoro-5-methoxy-phenyl)-3-(1-methylpyrazolo[4,3-c]pyridin-7-yl)-2,4-dioxo-furo[3,2-d]pyrimidin-1-yl]propanenitrile] | 112 nM
COc1cc(-c2cc3c(o2)c(=O)n(-c2cncc4cccnc24)c(=O)n3CCC#N)c(Cl)cc1F (single isomer, unassigned) [Example 65, 3-(6-(2-chloro-4-fluoro-5-methoxyphenyl)-3-(1,6-naphthyridin-8-yl)-2,4-dioxo-3,4-dihydrofuro[3,2-d]pyrimidin-1(2H)-yl)propanenitrile] | 5.78 nM
COc1cc(-c2cc3c(o2)c(=O)n(-c2cncc4cccnc24)c(=O)n3CCC#N)c(Cl)cc1F (single isomer, unassigned) [Example 66, 3-(6-(2-chloro-4-fluoro-5-methoxyphenyl)-3-(1,6-naphthyridin-8-yl)-2,4-dioxo-3,4-dihydrofuro[3,2-d]pyrimidin-1(2H)-yl)propanenitrile] | 112 nM
